Reference: PubChem BioAssay (NCI)
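Growth conditions: 96-well plates. Treatment: test compound, 48 hours, 5 concentrations. Analysis: linear interpolation between bracketing concentrations; unreached endpoints set to highest concentration. TGI is the concentration that stops growth completely.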

Legend:
Assay in all cases: NCI anticancer screen, dose series, 48 h
SF-539 CNS = tested on: SF-539 CNS
NCI-H23 lung = tested on: NCI-H23 lung
SK-MEL-28 melanoma = tested on: SK-MEL-28 melanoma
MDA-MB-231 breast = tested on: MDA-MB-231 breast
HS 578T breast = tested on: HS 578T breast
SW-620 colon = tested on: SW-620 colon
M14 melanoma = tested on: M14 melanoma
OVCAR-3 ovarian = tested on: OVCAR-3 ovarian
T-47D breast = tested on: T-47D breast
A498 renal = tested on: A498 renal

SMILES	TGI (SF-539 CNS) [µM]	TGI (NCI-H23 lung) [µM]	TGI (SK-MEL-28 melanoma) [µM]	TGI (MDA-MB-231 breast) [µM]	TGI (HS 578T breast) [µM]	TGI (SW-620 colon) [µM]	TGI (M14 melanoma) [µM]	TGI (OVCAR-3 ovarian) [µM]	TGI (T-47D breast) [µM]	TGI (A498 renal) [µM]
CCCCCC[C@H]([C@H](C)O)n1cnc2c(N)ncnc21	> 100	> 100	> 100	> 100	> 100	> 100	> 100	> 100	> 100	–
Nc1[nH]c(=O)nc2c1ncn2C1OC(CO)C(O)C1O (centres undefined)	–	> 100	> 100	> 100	> 100	> 100	> 100	> 100	70.3	> 100
C[C@]12CC[C@H]3[C@@H](CC=C4C[C@@H](N5CCCC5)CC[C@@]43C)[C@@H]1C[C@H](N1CCCCC1)[C@@H]2O	> 100	> 100	> 100	> 100	> 100	> 100	40.4	> 100	> 100	> 100
C=C1c2nc3ccccc3n2C=C(c2ccc(C)cc2)N1c1ccc(OC)cc1	> 100	> 100	> 100	> 100	> 100	> 100	> 100	> 100	> 100	> 100
C=C(Br)CN=CN(C)C	> 100	> 100	> 100	> 100	> 100	–	> 100	> 100	> 100	> 100
COC1(CC[C@@H](C)COC2OC(CO)C(O)C(O)C2O)OC2C[C@H]3[C@@H]4CC[C@H]5C[C@@H](OC6OC(CO)C(OC7OC(CO)C(O)C(O)C7O)C(O)C6OC6OC(C)C(O)C(O)C6O)[C@H](O)C[C@]5(C)[C@H]4CC[C@]3(C)C2[C@@H]1C (some centres undefined)	3.34	–	3.37	3.66	7.25	4.66	3.36	3.3	9.01	3.38
CC1OC(OC2C(O[C@H]3CC[C@@]4(C)C(=CC[C@H]5[C@@H]6C[C@@H]7O[C@]8(CC[C@@H](C)CO8)[C@@H](C)[C@@H]7[C@@]6(C)CC[C@@H]54)C3)OC(CO)C(O)C2OC2OC(CO)C(O)C(O)C2O)C(O)C(O)C1O (some centres undefined)	5.23	3.44	3.68	2.98	3.74	4.39	–	2.69	4.65	3.15
C/C(=N\Nc1nc2ccccc2s1)c1ccncn1	35.9	5.55	> 100	> 46.9	26.2	> 100	14.4	–	> 100	> 100
Cn1c(=O)c2c(nc3[nH]c(=O)c(Br)cn32)n(C)c1=O	> 100	> 100	> 100	> 100	> 100	> 100	> 100	> 100	> 100	> 100
COc1cc(CCNC2=CC(=O)c3nc[nH]c3C2=O)ccc1O	> 100	48.6	60.4	> 100	72.8	58.6	33.5	30.5	73.2	71
